Assay results published in publication PMC5804415, “Comparison of ^68Ga-DOTA-Siglec-9 and ^18F-Fluorodeoxyribose-Siglec-9: Inflammation Imaging and Radiation Dosimetry” (Contrast Media & Molecular Imaging, 2017).
Positions of bridges follow the written chain, without caps; N, C: chain ends. Residues, ends and D or L forms follow the SMILES beside them. *: point of attachment. X1 = O=C(CON=C[C@H](O)[C@H](O)[C@H](O)CF)*; AEEA = NCCOCCOCC(=O)O

What was measured:
[1] = Human radiation dosimetry extrapolated from rat PET data (OLINDA/EXM); conditions: mean ± SD
Description: Absorbed doses of ^68Ga-DOTA-Siglec-9 and ^18F-FDR-Siglec-9 were calculated with the OLINDA/EXM version 1.0 software (organ level internal dose assessment and exponential modeling; Vanderbilt University, Nashville, TN, USA), which applies the MIRD schema (developed by the Medical Internal Radiation Dose committee of the Society of Nuclear Medicine) for radiation dose calculations in internal exposure. The software includes radionuclide information and selection of human body phantoms. The residence times derived from the rat data were integrated as the area under the time-activity curve. The residence times were converted into corresponding human values by multiplication with a factor to scale the organ and body weights: (WBody,rat/WOrgan,rat)×(WOrgan,human/WBody,human), where WBody,rat and WBody,human are the body weights of rat and human (a 70-kg male), respectively; and WOrgan,rat and WOrgan,human are the organ weights of rat and human (organ weights for a 70 kg male), respectively [14].

[2] = Ex vivo gamma counting biodistribution in atherosclerotic mice; conditions: mouse, total radioactivity, LDLR^−/−ApoB^100/100 mice (n = 19), 25 min after injection, mean ± SD
Description: (§1) Six-month-old atherosclerotic low-density lipoprotein receptor-deficient mice (weight, 27 ± 4.1 g; n = 19) expressing only apolipoprotein B100 (LDLR^−/−ApoB^100/100, strain #003000; Jackson Laboratory, Bar Harbor, ME, USA) were fed for 4 months with a Western-type diet. Two-month-old C57BL/6N mice (weight, 24 ± 2.2 g; n = 13) fed with a regular chow served as controls.
(§2) In PET studies, mice (19 atherosclerotic, 13 controls) were injected with 14 ± 4.4 MBq of ^18F-FDR-Siglec-9. Twenty-five minutes after ^18F-FDR-Siglec-9 injection, blood was drawn by cardiac puncture and the animals were killed. The thoracic aorta was excised and rinsed in saline to remove the blood. In addition, various other tissues were excised and patted dry. Samples of blood and urine were collected, and blood plasma was separated by centrifugation. […] The results were expressed as % ID/g and target-to-background ratio.

[3] = Ex vivo gamma counting biodistribution in control mice; conditions: mouse, total radioactivity, C57BL/6N control mice (n = 13), 25 min after injection, mean ± SD
Description: as §1, §2

[4] = Ex vivo gamma counting biodistribution in rats with skin/muscle inflammation; conditions: Sprague-Dawley, rat, iv, total radioactivity; for tissue uptake at 1 h: Ex vivo biodistribution, rats with skin/muscle inflammation, i.v., 60 min after injection, gamma counting, mean ± SD
Description: (§3) Twenty-four hours before the PET studies, Sprague-Dawley rats (weight, 350 ± 22 g; n = 16) were subcutaneously injected with turpentine oil (Sigma-Aldrich) to induce focal acute, sterile inflammation [12]. Before the injection, rats were shaved on the both forelegs. Inflamed area on the left foreleg contained both skin and muscle. The intact, contralateral side (right foreleg) was used as a control.
(§4) After PET imaging, rats were sacrificed and various tissues were excised and weighed, and their radioactivity levels were measured with a gamma counter (1480 Wizard 3′′, PerkinElmer, Turku, Finland). The ex vivo biodistribution results were expressed as a percentage of the injected radioactivity dose per gram of tissue (% ID/g) and target-to-background ratio.

[5] = tested on: rats with skin/muscle inflammation (turpentine oil); test: as above; conditions: rats with skin/muscle inflammation, 60 min after injection, mean ± SD
Description: as §3, §4

[6] = tested on: rats with skin/muscle inflammation (turpentine oil); format: in vivo, rat
Description: Rats were divided into two groups with Group 1 being intravenously (i.v.) given ^68Ga-DOTA-Siglec-9 (16 ± 2.9 MBq, n = 8) and Group 2 ^18F-FDR-Siglec-9 (18 ± 5.1 MBq, n = 8). A 60 min dynamic PET acquisition was performed on a High Resolution Research Tomograph (HRRT; Siemens Medical Solutions, Knoxville, TN, USA). The PET data were reconstructed into 5 × 60 s and 11 × 300 s frames using an ordered-subsets expectation maximization 3D algorithm (OSEM3D). Quantitative PET image analysis was performed by defining regions of interest (ROIs) within the inflamed area (on the left foreleg), control area (on the right foreleg), kidneys, lungs, heart, liver, and urinary bladder using […] 2.8 software (Turku PET Centre). Results were expressed as standardized uptake values (SUV) and time-activity curves. SUV was calculated as a ratio of tissue radioactivity concentration (Bq/mL) and given radioactivity dose (Bq) divided by animal's body weight.

[7] = extrapolated from the rat PET data, OLINDA/EXM, 70 kg male
[8] = source organ, extrapolated from the rat PET data to 70 kg male
[9] = adipose tissue, WAT, 14 MBq, read-out: Ex vivo biodistribution, Adipose tissue, WAT
[10] = aorta, 14 MBq, read-out: Ex vivo biodistribution, Aorta
[11] = blood, 14 MBq, read-out: Ex vivo biodistribution, Blood
[12] = brain, 14 MBq, read-out: Ex vivo biodistribution, Brain
[13] = heart, 14 MBq, read-out: Ex vivo biodistribution, Heart
[14] = kidney, 14 MBq, read-out: Ex vivo biodistribution, Kidney
[15] = thymus, 14 MBq, read-out: Ex vivo biodistribution, Thymus
[16] = Sprague-Dawley rats, turpentine oil skin/muscle inflammation, i.v., dynamic PET 10–60 min, mean ± SD, SD

## CC(C)C[C@@H]1NC(=O)CNC(=O)[C@H](CCCNC(=N)N)NC(=O)[C@H](Cc2c[nH]c3ccccc23)NC(=O)[C@H](CO)NC(=O)[C@H](CC(C)C)NC(=O)[C@H](CO)NC(=O)[C@H](CC(C)C)NC(=O)[C@H](CCCNC(=N)N)NC(=O)[C@H](C)NC(=O)[C@@H](NC(=O)COCCOCCNC(=O)CON=C[C@H](O)[C@H](O)[C@H](O)CF)CSSC[C@@H](C(=O)N2CCC[C@H]2C(=O)N[C@@H](CO)C(=O)N[C@@H](CCCCN)C(=O)O)NC(=O)[C@H](CC(C)C)NC(=O)[C@H]([C@@H](C)O)NC1=O [^18F-FDR-Siglec-9] ({X1-AEEA}-CARLSLSWRGLTLCPSK-OH; disulfide 1-14; N-terminus and C-terminus assumed)
[1]; extrapolated from the rat PET data to 70 kg male
  Normalized number of disintegrations, Total body: 1.8 ± 0.32 h
[1]; [7]
  Human dose equivalent estimate, Adrenals: 0.020 ± 0.0029 mSv/MBq
  Human dose equivalent estimate, Brain: 0.010 ± 0.0018 mSv/MBq
  Human dose equivalent estimate, Breasts: 0.0086 ± 0.0011 mSv/MBq
  Human dose equivalent estimate, Gallbladder wall: 0.017 ± 0.0014 mSv/MBq
  Human dose equivalent estimate, Heart wall: 0.0085 ± 0.00045 mSv/MBq
  Human dose equivalent estimate, Kidneys: 0.29 ± 0.13 mSv/MBq
  Human dose equivalent estimate, Liver: 0.021 ± 0.0061 mSv/MBq
  Human dose equivalent estimate, Lower large intestine wall: 0.014 ± 0.00091 mSv/MBq
  Human dose equivalent estimate, Lungs: 0.0062 ± 0.00016 mSv/MBq
  Human dose equivalent estimate, Muscle: 0.0074 ± 0.00025 mSv/MBq
  Human dose equivalent estimate, Osteogenic cells: 0.016 ± 0.0019 mSv/MBq
  Human dose equivalent estimate, Ovaries: 0.014 ± 0.00083 mSv/MBq
  Human dose equivalent estimate, Pancreas: 0.018 ± 0.0015 mSv/MBq
  Human dose equivalent estimate, Red marrow: 0.012 ± 0.00032 mSv/MBq
  Human dose equivalent estimate, Skin: 0.0080 ± 0.0008 mSv/MBq
  Human dose equivalent estimate, Small intestine: 0.015 ± 0.00049 mSv/MBq
  Human dose equivalent estimate, Spleen: 0.018 ± 0.0022 mSv/MBq
  Human dose equivalent estimate, Stomach wall: 0.014 ± 0.00041 mSv/MBq
  Human dose equivalent estimate, Testes: 0.010 ± 0.0010 mSv/MBq
  Human dose equivalent estimate, Thymus: 0.010 ± 0.0013 mSv/MBq
  Human dose equivalent estimate, Thyroid: 0.0094 ± 0.0014 mSv/MBq
  Human dose equivalent estimate, Total body: 0.012 ± 0.00012 mSv/MBq
  Human dose equivalent estimate, Upper large intestine wall: 0.015 ± 0.00045 mSv/MBq
  Human dose equivalent estimate, Urinary bladder wall: 0.081 ± 0.032 mSv/MBq
  Human dose equivalent estimate, Uterus: 0.017 ± 0.0012 mSv/MBq
[1]; extrapolated from the rat PET data, OLINDA/EXM, 70 kg man
  Human effective dose estimate: 0.022 ± 0.0042 mSv/MBq
[1]; [8]
  Normalized number of disintegrations, Heart wall: 0.0026 ± 0.0010 h
  Normalized number of disintegrations, Kidneys: 0.47 ± 0.21 h
  Normalized number of disintegrations, Liver: 0.11 ± 0.043 h
  Normalized number of disintegrations, Lungs: 0.0029 ± 0.0011 h
  Normalized number of disintegrations, Muscle: 0.081 ± 0.042 h
  Normalized number of disintegrations, Urinary bladder wall: 0.15 ± 0.070 h
[2]; LDLR^−/−ApoB^100/100 (strain #003000), liver, read-out: Ex vivo biodistribution, Liver
  tissue uptake at 25 min: 3 ± 0.97 %ID/g
[2]; LDLR^−/−ApoB^100/100 (strain #003000), lungs, read-out: Ex vivo biodistribution, Lungs
  tissue uptake at 25 min: 2.4 ± 1.1 %ID/g
[2]; LDLR^−/−ApoB^100/100 (strain #003000), muscle, read-out: Ex vivo biodistribution, Muscle
  tissue uptake at 25 min: 0.62 ± 0.2 %ID/g
[2]; LDLR^−/−ApoB^100/100 (strain #003000), pancreas, read-out: Ex vivo biodistribution, Pancreas
  tissue uptake at 25 min: 0.82 ± 0.28 %ID/g
[2]; LDLR^−/−ApoB^100/100 (strain #003000), plasma, read-out: Ex vivo biodistribution, Plasma
  tissue uptake at 25 min: 5.7 ± 1.4 %ID/g
[2]; LDLR^−/−ApoB^100/100 (strain #003000), small intestine, read-out: Ex vivo biodistribution, Small intestine
  tissue uptake at 25 min: 1.6 ± 0.49 %ID/g
[2]; LDLR^−/−ApoB^100/100 (strain #003000), spleen, read-out: Ex vivo biodistribution, Spleen
  tissue uptake at 25 min: 1.1 ± 0.28 %ID/g
[2]; [9]
  tissue uptake at 25 min: 0.72 ± 0.66 %ID/g
[2]; [10]
  tissue uptake at 25 min: 0.93 ± 0.38 %ID/g
[2]; [11]
  tissue uptake at 25 min: 3.2 ± 0.82 %ID/g
[2]; [12]
  tissue uptake at 25 min: 0.15 ± 0.06 %ID/g
[2]; [13]
  tissue uptake at 25 min: 0.62 ± 0.28 %ID/g
[2]; [14]
  tissue uptake at 25 min: 44 ± 26 %ID/g
[2]; [15]
  tissue uptake at 25 min: 0.69 ± 0.19 %ID/g
[2]; urine, 14 MBq
  excreta dose per gram or mL at 25 min: 470 ± 370 %ID/g
[3]; adipose tissue, BAT, 14 MBq, read-out: Ex vivo biodistribution, Adipose tissue, BAT
  tissue uptake at 25 min: 0.45 ± 0.13 %ID/g
[3]; [9]
  tissue uptake at 25 min: 0.63 ± 0.37 %ID/g
[3]; [10]
  tissue uptake at 25 min: 0.52 ± 0.23 %ID/g
[3]; [11]
  tissue uptake at 25 min: 2.1 ± 0.59 %ID/g
[3]; [12]
  tissue uptake at 25 min: 0.11 ± 0.048 %ID/g
[3]; [13]
  tissue uptake at 25 min: 0.34 ± 0.082 %ID/g
[3]; [14]
  tissue uptake at 25 min: 43 ± 25 %ID/g
[3]; liver, read-out: Ex vivo biodistribution, Liver
  tissue uptake at 25 min: 3.5 ± 2.3 %ID/g
[3]; lungs, read-out: Ex vivo biodistribution, Lungs
  tissue uptake at 25 min: 1.5 ± 0.45 %ID/g
[3]; muscle, read-out: Ex vivo biodistribution, Muscle
  tissue uptake at 25 min: 0.43 ± 0.13 %ID/g
[3]; pancreas, read-out: Ex vivo biodistribution, Pancreas
  tissue uptake at 25 min: 0.57 ± 0.18 %ID/g
[3]; plasma, read-out: Ex vivo biodistribution, Plasma
  tissue uptake at 25 min: 3.8 ± 0.62 %ID/g
[3]; small intestine, read-out: Ex vivo biodistribution, Small intestine
  tissue uptake at 25 min: 0.79 ± 0.29 %ID/g
[3]; spleen, read-out: Ex vivo biodistribution, Spleen
  tissue uptake at 25 min: 0.62 ± 0.32 %ID/g
[3]; [15]
  tissue uptake at 25 min: 0.43 ± 0.089 %ID/g
[3]; urine, 14 MBq
  excreta dose per gram or mL at 25 min: 610 ± 340 %ID/g
[4]; adipose tissue, BAT, Adipose tissue, BAT
  tissue uptake at 1 h: 0.049 ± 0.019 %ID/g
[4]; adipose tissue, WAT, Adipose tissue, WAT
  tissue uptake at 1 h: 0.017 ± 0.0041 %ID/g
[4]; blood, Blood
  tissue uptake at 1 h: 0.12 ± 0.023 %ID/g
[4]; bone (femoral), Bone (femoral)
  tissue uptake at 1 h: 0.017 ± 0.01 %ID/g
[4]; bone marrow, Bone marrow
  tissue uptake at 1 h: 0.056 ± 0.011 %ID/g
[4]; brain, Brain
  tissue uptake at 1 h: 0.01 ± 0.003 %ID/g
[4]; control area (intact right foreleg), Control area
  tissue uptake at 1 h: 0.11 ± 0.056 %ID/g
[4]; heart, Heart
  tissue uptake at 1 h: 0.048 ± 0.01 %ID/g
[4]; inflamed area (left foreleg, skin and muscle), Inflamed area
  tissue uptake at 1 h: 0.19 ± 0.053 %ID/g
[4]; kidneys, Kidneys
  tissue uptake at 1 h: 14 ± 9.9 %ID/g
[4]; liver, Liver
  tissue uptake at 1 h: 0.68 ± 0.12 %ID/g
[4]; lungs, Lungs
  tissue uptake at 1 h: 0.11 ± 0.028 %ID/g
[4]; muscle, Muscle
  tissue uptake at 1 h: 0.021 ± 0.0067 %ID/g
[4]; pancreas, Pancreas
  tissue uptake at 1 h: 0.048 ± 0.011 %ID/g
[4]; plasma, Plasma
  tissue uptake at 1 h: 0.23 ± 0.087 %ID/g
[4]; small intestine, Small intestine
  tissue uptake at 1 h: 0.091 ± 0.029 %ID/g
[4]; spleen, Spleen
  tissue uptake at 1 h: 0.06 ± 0.012 %ID/g
[4]; urine, SD
  excreta dose per gram or mL at 1 h: 23 ± 14 %ID/g
[4]; male, testis, Testis
  tissue uptake at 1 h: 0.046 ± 0.022 %ID/g
[5]
  inflamed-to-control area ratio (ex vivo gamma counting): 2.0 ± 0.70
  inflammation-to-blood ratio (ex vivo gamma counting): 1.3 ± 0.16
[6]; Sprague-Dawley rats, turpentine oil skin/muscle inflammation, i.v., dynamic PET 10–60 min, mean ± SD, n = 5 (68Ga) or 8 (18F), SD
  SUVmean,10–60 min in the inflamed area: 0.77 ± 0.22
[6]; [16]
  SUVmax,10–60 min in the inflamed area: 1.1 ± 0.097
  inflammation-to-blood ratio 10–60 min (PET): 1.7 ± 0.51
[6]; rat, in vivo, iv
  time of peak uptake in the inflamed area after the i.v. bolus injection: about 10 min
